US12473250B2, “Molecular design of new antibiotics and antibiotic adjuvants against MCR strains” (priority 2019, dated 2025)
In brackets after ≈: the same amount, converted by molar mass. Like-named read-outs stand apart in the source and are kept apart here.

What was measured:
various pathogens = assay: organism not typed; format: cell-based
Procedure: The MICs of the individual drugs and LC compound in combinations were determined using the broth microdilution technique as recommended by the CLSI whereby the two anti-microbial agents were added in an equal amount. (e.g.: 50 μL of Colistin: 50 μL of LC compounds). Diluted media containing compounds and antibiotics will be serially diluted 2-fold, and LC compounds and antibiotics alone or in combination will be assayed at fixed synergy concentration. In all cases, the lowest concentration at which no visible growth occurred was be recorded to be the MIC value of individual and combined antibacterial agents. The results were obtained after 24 hours of incubation.
Using the combination of LC100 and colistin, the activity of a broad range of strains was further tested (Table 7).

[1] = test system: MCR positive E. coli Clinical isolate 6083655967; format: in vivo; conditions: neutropenic mice, i.p. 1 hour after infection, 6 hours after treatment; colistin 10 mg/kg, LC100 50 mg/kg, meropenem 100 mg/kg, combination 50 + 10 mg/kg
Procedure: FIG. 21 refers to graphs showing the efficacy testing of combination of LC100 and Colistin in neutropenic mouse thigh infection model infected with MCR positive E. coli Clinical isolate 6083655967. Starting inoculum was 1.87×10^6, N=3. “Combination” refers to Colistin 10 mg/kg+LC100 50 mg/kg. Each treatment was done intraperitoneally 1 hour after infection. 6 hours after treatment, mouse thigh tissues were homogenized for viable CFU.
The combination of colistin and antimicrobial peptide (LC100) was tested against E. coli clinical isolate MCR-positive strain 6083655967 in a neutropenic mouse thigh infection model. C57BL/6 mice were rendered neutropenic by cyclophosphamide, dosed at 150 and 100 mg kg-1 delivered on days −4 and −1 prior to infection. Bacteria were suspended in sterile saline and adjusted to a concentration of ˜1.876×10^6 CFU per infection site (100 micro-liters) and injected intramuscularly into the right thigh of five mice per treatment group. At 1 h post infection, mice received colistin ([…], i.p. n=5), LC100 (50 mg kg-1, i.p. n=5), untreated (n=5), or the combination (n=5). Mice were euthanized 6 h after infection; thigh tissue was aseptically collected, homogenized, serially diluted in PBS and plated onto solid TSA supplemented plates. Plates were incubated overnight at 37° C. and colonies were quantified to determine bacterial load.
To evaluate the in vivo efficacy of the combination of LC100 and colistin, a neutropenic mouse thigh infection model was used. 30 mice were classed into 5 groups: control, colistin at 10 mg/kg, LC100 at 50 mg/kg, meropenem at 100 mg/kg and combination of 50 mg/kg of LC100 and 10 mg/kg of colistin. Each treatment was administered intraperitoneally 1 hour after infection. The starting inoculum was 1.87×10^6, and 6 hours after treatment, mouse thigh tissues were homogenized for viable CFU. […] As neutropenic mice were used in the study, the 1.2 log reduction in bacterial burden is due to the combination of LC100 and colistin rather than the immune system of the mouse.

[2] = test system: ACBA multi-drug resistant strains; assay: MIC against multi-drug resistant strains (Table 5); format: cell-based, Acinetobacter baumannii; conditions: Acinetobacter baumannii
Procedure: (§1) MIC experiments of the antimicrobial agents were determined by a modified broth microdilution method in accordance with the Clinical and Laboratory Standards Institute (CLSI) guidelines using 96 well culture plates. In brief, serial dilutions of all plates were prepared at different concentrations (μg). The inoculum suspension was prepared by adding isolated colonies from a 18-20 hours on TSA plate into phosphate buffer (0.31 mM, pH 7.2) or in water for injection (BBraun) and adjusting the suspension to a turbidity equivalent to 0.5 McFarland Standard. Each well contained a final bacterial concentration of approximately 5×10^5 colony forming units (CFU)/mL. The plate was covered and incubated at 35° C. for 24 hours. […] For the microdilution plates, turbidity in wells can be measured at OD600 using TECAN infinite M200Pro. MIC was determined as […] concentration that gives a 99 percent inhibition.

[3] = test system: ENT CLOACAE multi-drug resistant strains; assay: MIC against multi-drug resistant strains (Table 5); format: cell-based, E. cloacae; conditions: Enterobacter cloacae, alone, read-out: MIC
Procedure: as §1

[4] = test system: KLPN multi-drug resistant strains; assay: MIC against multi-drug resistant strains (Table 5); format: cell-based, Klebsiella pneumonia; conditions: Klebsiella pneumoniae, alone, read-out: MIC
Procedure: as §1

[5] = test system: EC strains (CRE strains, colistin sensitive); assay: MIC of polymyxin B or colistin alone (Table 4); format: cell-based, E. coli; design: unit: μg/mL
Procedure: as §1

[6] = test system: PAE strains (CRE strains, colistin sensitive); assay: MIC of polymyxin B or colistin alone (Table 4); format: cell-based, P. aeruginosa; design: unit: μg/mL
Procedure: as §1

[7] = Escherichia coli, 6083655967 [MCR 1+, E. Coli]
[8] = Escherichia coli, 6093560257 [MCR 1+, E. Coli, NDM-1]
[9] = Escherichia coli, 6123520276 [MCR 1+, E. Coli]
[10] = Escherichia coli, 7023436560 [MCR 1+, E. Coli]
[11] = Escherichia coli, 7023444207 [MCR 1+, E. Coli]
[12] = Escherichia coli, 7023446108 [MCR 1−, E. Coli]
[13] = Escherichia coli, 7033607097 [MCR 1−, E. Coli]
[14] = Escherichia coli, 7103531927 [MCR 1+, E. Coli, KPC+]
[15] = Escherichia coli, 7113636863 [MCR 1+, E. Coli, NDM-1]
[16] = ATCC19606, strain ACBA ATCC 19606, alone, read-out: MIC
[17] = strain ACBA 1012, alone, read-out: MIC
[18] = strain ACBA 43357, alone, read-out: MIC

`C[C@@H](O)[C@H]1C(=O)N2C(C(=O)O)=C(S[C@@H]3CN[C@H](C(=O)N(C)C)C3)[C@H](C)[C@H]12` [meropenem] gave an MIC (various pathogens; ACBA 1010 (CI)) of 1.56 µg/mL, an MIC (various pathogens; [7]) of under 0.0975 µg/mL and an MIC (various pathogens; [8]) of over 50 µg/mL. It also gave an MIC (various pathogens; [9]) of under 0.0975 µg/mL, an MIC (various pathogens; [10]) of under 0.0975 µg/mL and an MIC (various pathogens; [11]) of under 0.0975 µg/mL. It also gave an MIC (various pathogens; [12]) of under 0.0975 µg/mL, an MIC (various pathogens; [13]) of under 0.0975 µg/mL and an MIC (various pathogens; [14]) of 25 µg/mL. The MIC (various pathogens; [15]) was 50 µg/mL, the MIC (various pathogens; Escherichia coli, E. Coli CRE 11804) was over 25 µg/mL and the MIC (various pathogens; Escherichia coli, E. Coli CRE 17232, ⅙ MHB) was under 0.195 µg/mL. It also gave an MIC (various pathogens; Escherichia coli, E. Coli CRE 17528) of 1.56 µg/mL, an MIC (various pathogens; KLPN CRE 7955) of over 25 µg/mL and an MIC (various pathogens; KLPN CRE 16260) of over 50 µg/mL. For the same molecule, the MIC (various pathogens; KLPN CRE 27025) was over 50 µg/mL, the MIC (various pathogens; KLPN CRE 55301) was 0.39 µg/mL and the MIC (various pathogens; PAE DM 4150) was 1.56 µg/mL. It also gave an MIC (various pathogens; PAE DM 23155) of 0.195 µg/mL, an MIC (various pathogens; PAE DM 23257) of 0.78 µg/mL and an MIC (various pathogens; PAE DM 23376) of 0.39 µg/mL. For the same molecule, the MIC (various pathogens; PAE DR 4877) was 1.56 µg/mL, the MIC (various pathogens; PAE DR 5790) was 6.25 µg/mL and the MIC (various pathogens; PAE DU 14476) was over 25 µg/mL. For the same molecule, the “reduction in bacterial burden” value [1] was 2 log.
In the case of `NCC[C@H](O)C(=O)N[C@@H]1C[C@H](N)[C@@H](O[C@H]2O[C@H](CN)[C@@H](O)[C@H](O)[C@H]2O)[C@H](O)[C@H]1O[C@H]1O[C@H](CO)[C@@H](O)[C@H](N)[C@H]1O` [Amikacin], the MIC [2, 16] is reported as 12.5 µg/mL (≈ 21.3 µM), the MIC ([2]; strain ACBA 1010, alone, read-out: MIC) is reported as 1.56 µg/mL (≈ 2.66 µM) and the MIC [2, 17] is reported as over 50 µg/mL. For the same molecule, the MIC [2, 18] was 50 µg/mL (≈ 85.4 µM), the MIC ([3]; strain ENT CLOACAE 6780) was over 50 µg/mL and the MIC ([3]; strain ENT CLOACAE 21489) was 0.78 µg/mL (≈ 1.33 µM). For the same molecule, the MIC ([3]; strain ENT CLOACAE 30063) was 25 µg/mL (≈ 42.7 µM), the MIC ([3]; strain ENT CLOACAE 44095) was 25 µg/mL (≈ 42.7 µM) and the MIC ([4]; strain KLPN 8852) was 12.5 µg/mL (≈ 21.3 µM). For the same molecule, the MIC ([4]; strain KLPN 15588) was over 50 µg/mL, the MIC ([4]; strain KLPN 24076) was 3.12 µg/mL (≈ 5.34 µM) and the MIC ([4]; strain KLPN 27025) was 3.12 µg/mL (≈ 5.34 µM).
For Polymyxin B, the “MIC (antibiotic alone)” value ([5]; strain EC 17232) was 0.195, the “MIC (antibiotic alone)” value ([5]; strain EC 17528) was 0.78 and the “MIC (antibiotic alone)” value ([5]; strain EC 19963) was 1.56. The “MIC (antibiotic alone)” value ([6]; strain PAE 4877) was 1.56, the “MIC (antibiotic alone)” value ([6]; strain PAE 5790) was 1.56 and the “MIC (antibiotic alone)” value ([6]; strain PAE 14476) was 1.56.
Molecule `C[C@@H](O)[C@H]1C(=O)N2C(C(=O)O)=C(SCCN=CN)C[C@H]12` [Imipenem] has an MIC [2] of 12.5 µg/mL (≈ 41.8 µM), an MIC [2, 16] of 25 µg/mL (≈ 83.5 µM) and an MIC [2, 17] of over 50 µg/mL. The MIC [2, 18] was over 50 µg/mL, the MIC ([3]; strain ENT CLOACAE 6780) was over 50 µg/mL and the MIC ([3]; strain ENT CLOACAE 21489) was over 50 µg/mL. The MIC ([3]; strain ENT CLOACAE 30063) was over 50 µg/mL, the MIC ([3]; strain ENT CLOACAE 44095) was over 50 µg/mL and the MIC ([4]; strain KLPN 8852) was over 50 µg/mL. For the same molecule, the MIC ([4]; strain KLPN 15588) was over 50 µg/mL, the MIC ([4]; strain KLPN 24076) was over 50 µg/mL and the MIC ([4]; strain KLPN 27025) was over 50 µg/mL. For the same molecule, the MIC (various pathogens; ACBA 1010 (CI)) was 25 µg/mL, the MIC (various pathogens; ACBA ATCC 19606) was 25 µg/mL and the MIC (various pathogens; ACBA DR 43357) was over 50 µg/mL. It also gave an MIC (various pathogens; [7]) of 0.0975 µg/mL, an MIC (various pathogens; [8]) of 12.5 µg/mL and an MIC (various pathogens; [9]) of under 0.0975 µg/mL. The MIC (various pathogens; [10]) was under 0.0975 µg/mL, the MIC (various pathogens; [11]) was 0.0975 µg/mL and the MIC (various pathogens; [12]) was 0.0975 µg/mL. For the same molecule, the MIC (various pathogens; [13]) was 0.195 µg/mL, the MIC (various pathogens; [14]) was 6.25 µg/mL and the MIC (various pathogens; [15]) was 12.5 µg/mL. The MIC (various pathogens; KLPN CRE 15588) was over 50 µg/mL, the MIC (various pathogens; KLPN CRE 27025) was over 50 µg/mL and the MIC (various pathogens; PAE DM 4150) was 3.12 µg/mL. For the same molecule, the MIC (various pathogens; PAE DM 23155) was 0.78 µg/mL, the MIC (various pathogens; PAE DM 23257) was 0.78 µg/mL and the MIC (various pathogens; PAE DM 23376) was 1.56 µg/mL. The MIC (various pathogens; PAE DR 4877) was 1.56 µg/mL, the MIC (various pathogens; PAE DR 5790) was 6.25 µg/mL and the MIC (various pathogens; PAE DU 14476) was over 25 µg/mL.
